The numbers were not newly measured in patent US11071776B2, “Nanoparticles for treatment of allergy” (priority 2012, dated 2021), which cites them from elsewhere.

For the compound `CCCCCCCCCCCCCCCCCCCCCCCCCC(=O)N[C@@H](CO[C@H]1O[C@H](CO)[C@H](O)[C@H](O)[C@H]1O)[C@H](O)[C@H](O)CCCCCCCCCCCCCC` [αGalCer, alpha-galactosylceramide], the toxicity to humans entry is “not toxic to humans”.
